Patent publication US20230391752A1, “PYRROLIDINE-3-CARBOXAMIDE DERIVATIVES AND RELATED USES” (Chulalongkorn University, priority 2020, published 2023)

System: HBV
Assay: In vitro anti-HBV activity in HepG2.2.15 cell line (intracellular HBV DNA by qPCR at 1 μM)
Assay type: cell-based
Conditions: Hepatitis B virus, 144 h; HepG2.2.15 cells, 1 μM compound, 6 days, intracellular HBV DNA as percentage compared to vehicle control (0.5% DMSO)
Experimental: The stable transfected HBV cell line, called HepG2.2.15 cells was a valuable model with high reproducibility and commonly used for drug screening. To identify the anti-HBV activity, HepG2.2.15 cells were seeded at 5×10^5 cells/well with high glucose Dulbecco's modified Eagle medium (DMEM) containing 10% heat inactivated fetal bovine serum (FBS), 300 mg/L G418, non-essential amino acids (NEAA) 100 units/ml Antibiotic-Antimycotic, and allowed to stand for an overnight in an incubator set at 37° C. and 5% C02. HepG2.2.15 cells in each well were treated with the medium containing a compound (1 μM with 0.5% dimethyl sulfoxide (DMSO final concentration) for three days in the incubator. After that the medium was removed and fresh medium containing the compound was added to the cells for another 3 days. After 6 days of treatment, intracellular HBV DNA was extracted and determined by using quantitative real-time PCR (qPCR) technique with specific primers. Intrahepatic HBV DNA viral load was reported as percentage compared to vehicle control (0.5% DMSO) as shown in Table A.
“B” means % ranging between 80 and 90; “C” means % ranging between 70 and 80; “D” means % ranging between 60 and 70; “E” means % ranging between 45 and 60, “F” means %<45.

| Compound | activity at 1 µM [%] |
| --- | --- |
| C[C@H]1[C@@H](C(=O)Nc2cc(F)c(F)c(F)c2)CCN1C(=O)c1cc2cccnc2[nH]1 [Example 17, (2S,3S)-2-methyl-1-(1H-pyrrolo[2,3-b]pyridine-2-carbonyl)-N-(3,4,5-trifluorophenyl) pyrrolidine-3-carboxamide] | 60 to 70 |
| N#Cc1cc(NC(=O)[C@H]2CCN(C(=O)c3cc4cccnc4[nH]3)C2)ccc1F [Example 18, (S)—N-(3-cyano-4-fluorophenyl)-1-(1H-pyrrolo[2,3-b]pyridine-2-carbonyl)pyrrolidine-3-carboxamide] | 70 to 80 |
| C[C@H]1[C@@H](C(=O)Nc2ccc(F)c(C#N)c2)CCN1C(=O)c1cc2cccnc2[nH]1 [Example 21, (2S,3S)—N-(3-cyano-4-fluorophenyl)-2-methyl-1-(1H-pyrrolo[2,3-b]pyridine-2-carbonyl) pyrrolidine-3-carboxamide] | > 90 |
| N#Cc1cc(NC(=O)[C@H]2CCN(C(=O)c3ccc(Cl)[nH]3)C2)ccc1F [Example 22, (S)-1-(5-chloro-1H-pyrrole-2-carbonyl)-N-(3-cyano-4-fluorophenyl)pyrrolidine-3-carboxamide] | 60 to 70 |
| O=C(Nc1cc(F)c(F)c(F)c1)[C@H]1CCN(C(=O)c2cc3nccnc3[nH]2)C1 [Example 23, (S)-1-(5H-pyrrolo[2,3-b]pyrazine-6-carbonyl)-N-(3,4,5-trifluorophenyl)pyrrolidine-3-carboxamide] | 70 to 80 |
| Cc1cc(NC(=O)[C@H]2CCN(C(=O)c3cc4cccnc4[nH]3)C2)ccc1F [Example 24, (S)—N-(4-fluoro-3-methylphenyl)-1-(1H-pyrrolo[2,3-b]pyridine-2-carbonyl)pyrrolidine-3-carboxamide] | 60 to 70 |
| O=C(Nc1cc(F)c(F)c(F)c1)[C@H]1CCN(C(=O)c2nc3ccccc3[nH]2)C1 [Example 25, (S)-1-(1H-benzo[d]imidazole-2-carbonyl)-N-(3,4,5-trifluorophenyl)pyrrolidine-3-carboxamide] | 60 to 70 |
| O=C(Nc1cc(F)c(F)c(F)c1)[C@H]1CCN(C(=O)c2c[nH]c3ccccc23)C1 [Example 26, (S)-1-(1H-indole-3-carbonyl)-N-(3,4,5-trifluorophenyl)pyrrolidine-3-carboxamide] | 80 to 90 |
| O=C(Nc1cc(F)c(F)c(F)c1)[C@H]1CCN(C(=O)c2ncc[nH]2)C1 [Example 27, (S)-1-(1H-imidazole-2-carbonyl)-N-(3,4,5-trifluorophenyl)pyrrolidine-3-carboxamide] | > 90 |
| O=C(Nc1cc(F)c(F)c(F)c1)[C@H]1CCN(C(=O)c2nccs2)C1 [Example 28, (S)-1-(thiazole-2-carbonyl)-N-(3,4,5-trifluorophenyl)pyrrolidine-3-carboxamide] | > 90 |
| Cc1c[nH]nc1C(=O)N1CC[C@H](C(=O)Nc2cc(F)c(F)c(F)c2)C1 [Example 29, (S)-1-(4-methyl-1H-pyrazole-3-carbonyl)-N-(3,4,5-trifluorophenyl)pyrrolidine-3-carboxamide] | > 90 |
| O=C(Nc1cc(F)c(F)c(F)c1)[C@H]1CCN(C(=O)c2cnc[nH]2)C1 [Example 30, (S)-1-(1H-imidazole-5-carbonyl)-N-(3,4,5-trifluorophenyl)pyrrolidine-3-carboxamide] | > 90 |
| Cc1n[nH]cc1C(=O)N1CC[C@H](C(=O)Nc2cc(F)c(F)c(F)c2)C1 [Example 31, (S)-1-(3-methyl-1H-pyrazole-4-carbonyl)-N-(3,4,5-trifluorophenyl)pyrrolidine-3-carboxamide] | > 90 |
| O=C(Nc1ccc(F)c(Cl)c1)[C@H]1CCN(C(=O)c2ncc[nH]2)C1 [Example 32, (S)—N-(3-chloro-4-fluorophenyl)-1-(1H-imidazole-2-carbonyl)pyrrolidine-3-carboxamide] | 80 to 90 |
| Cc1ccc(C(=O)N2CC[C@H](C(=O)Nc3ccc(F)c(Cl)c3)C2)[nH]1 [Example 33, (S)—N-(3-chloro-4-fluorophenyl)-1-(5-methyl-1H-pyrrole-2-carbonyl)pyrrolidine-3-carboxamide] | 80 to 90 |
